Experimental data from patent publication US12679839B2, “Cyclin-dependent kinase 7 (CDK7) non-covalent inhibitors” (JANSSEN PHARMACEUTICA NV, priority 2020, dated 2026).

These compounds were tested on RNA polymerase II Serine 5 phosphorylation (Rpb1 CTD), downstream substrate of CDK7 (assay: Imaging-based cellular RNA PolII Ser5 phosphorylation assay in A549 cells). Details: Homo sapiens, A549, 3 h, challenged with compound for 3 hours, read-out: pRNA polII Ser5 (A549) pIC50 (converted).
Assay type: cell-based, human
In short: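 A549 cells seeded 20 h in DMEM with 1% FBS, then exposed to compound for 3 h at 37 °C; fixed, methanol-permeabilized and immunostained for phospho-Rpb1 CTD Ser5, read by automated imaging. Signal normalized to DMSO (high) and 10 μM LDC4297 (low) controls; IC50 from four-parameter fit of % control vs concentration.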
Work on `C[C@@H]1Cc2cnc(NC3CCOCC3)nc2CN1C(=O)[C@@H]1CC[C@@H](N(C)C)CN1c1ccccc1` (mixture of isomers) [Compound 167] yielded an IC50 of 5750 nM. Work on `C[C@@H]1Cc2cnc(N[C@H]3CCC(=O)N(C)C3)nc2CN1C(=O)[C@H]1CCN(C)C[C@@H]1c1ccccc1` (relative stereo) [Compound 7] yielded an IC50 of 933 nM. Work on `C[C@@H]1Cc2cnc(N[C@@H]3CCOC4(CCC4)C3)nc2CN1C(=O)[C@H]1CCN(C)C[C@@H]1c1ccccc1` (relative stereo) [Compound 8] yielded an IC50 of 69.2 nM. Compound `C[C@@H]1Cc2cnc(N[C@H]3CCOC4(CCC4)C3)nc2CN1C(=O)[C@H]1CCN(C)C[C@@H]1c1ccccc1` (relative stereo) [Compound 9] has an IC50 of 309 nM. `C[C@@H]1Cc2cnc(N[C@@H]3CCOC(C)(C)C3)nc2CN1C(=O)[C@H]1CCN(C)C[C@@H]1c1ccccc1` (relative stereo) [Compound 40] was tested, and the IC50 was about 52.5 nM. `Cc1ccc([C@@H]2CN(C)CC[C@H]2C(=O)N2Cc3nc(NC4CCOCC4)ncc3C[C@H]2C)cn1` (relative stereo) [Compound 108] gave an IC50 of 1700 nM. With `CO[C@H]1CC[C@H](Nc2ncc3c(n2)CN(C(=O)[C@H]2CCN(C)C[C@@H]2c2ccc(C)nc2)[C@H](C)C3)CC1` (relative stereo) [Compound 110] the IC50 was 437 nM. `Cc1cccc([C@H]2CN(C)CC[C@@H]2C(=O)N2Cc3nc(Nc4cnn(C)c4)ncc3C[C@H]2C)c1` (relative stereo) [Compound 126] was tested, and the IC50 was about 3.89 nM. With `C[C@@H]1Cc2cnc(NCc3ccn(C)n3)nc2CN1C(=O)[C@@H]1CCN(C)C[C@H]1c1cccc(OC(F)(F)F)c1` (relative stereo) [Compound 127] the IC50 was 1510 nM. In the case of `C[C@@H]1Cc2cnc(NCc3ccn(C)n3)nc2CN1C(=O)[C@H]1CCN(C)C[C@@H]1c1cccc(OC(F)(F)F)c1` (relative stereo) [Compound 128], the IC50 was 102 nM. Compound `C[C@H]1Cc2cnc(NCc3ccn(C)n3)cc2CN1C(=O)[C@H]1CCN(C)C[C@@H]1c1ccccc1` (relative stereo) [Compound 174] has an IC50 of 35.5 nM. Compound `C[C@H]1Cc2cnc(Nc3cnn(C)c3)cc2CN1C(=O)[C@H]1CCN(C)C[C@@H]1c1ccccc1` (relative stereo) [Compound 176] has an IC50 of 380 nM. `Cc1cccc([C@H]2CN(C)CC[C@@H]2C(=O)N2Cc3nc(Nc4cnn(C)c4)ncc3[C@@H]3C[C@@H]32)c1` (relative stereo) [Compound 203] gave an IC50 of 148 nM. With `C[C@H]1Cc2cnc(NC3CCOCC3)nc2CN1C(=O)N1CCN(C)C[C@H]1c1cccc(F)c1` (relative stereo) [Compound 212] the IC50 was 182 nM. `C[C@@H]1Cc2cnc(N[C@H](C)c3ccn(C)n3)nc2CN1C(=O)[C@H]1CCN(C)C[C@@H]1c1ccccc1` (single isomer, unassigned) [Compound 54] was tested, and the IC50 was 123 nM. `C[C@H](Nc1ncc2c(n1)CN(C(=O)[C@H]1CCN(C)C[C@@H]1c1ccccc1)[C@H](C)C2)c1ccn(C)n1` (single isomer, unassigned) [Compound 55] was tested, and the IC50 was 4470 nM. `C[C@@H]1Cc2cnc(NCc3ccccc3)nc2CN1C(=O)[C@H]1CCN(CC2COC2)C[C@@H]1c1ccccc1` (single isomer, unassigned) [Compound 155] gave an IC50 of 537 nM. For `CC(C)N1CC[C@H](C(=O)N2Cc3nc(NC4CCOCC4)ncc3C[C@H]2C)[C@@H](c2cccc(Cl)c2)C1` (single isomer, unassigned) [Compound 160], the IC50 was 135 nM. `C[C@H]1Cc2cnc(NC3CCOCC3)cc2CN1C(=O)[C@H]1CCN(C)C[C@@H]1c1ccccc1` (single isomer, unassigned) [Compound 171a] showed an IC50 of 288 nM. `C[C@H]1Cc2cnc(NC3(c4ccccc4)COC3)cc2CN1C(=O)[C@H]1CCN(C)C[C@@H]1c1ccccc1` (single isomer, unassigned) [Compound 175] was tested, and the IC50 was 166 nM. Work on `CN1CC[C@H](C(=O)N2Cc3nc(NCc4ccn(C)n4)ncc3CC2(C)C)[C@@H](c2ccccc2)C1` (single isomer, unassigned) [Compound 191] yielded an IC50 of about 4270 nM. `C[C@@H]1Cc2cnc(NCc3ccn(C)n3)nc2CN1C(=O)[C@H]1CCN(C)C[C@@H]1c1ccccc1` [Compound 1] was tested, and the IC50 was about 45.7 nM. `C[C@@H]1Cc2cnc(NC3CCC(OCC4CC4)CC3)nc2CN1C(=O)[C@H]1CCN(C)C[C@@H]1c1ccccc1` (stereo partly drawn) [Compound 3] showed an IC50 of 60.3 nM. For `CO[C@]1(C)CC[C@@H](Nc2ncc3c(n2)CN(C(=O)[C@H]2CCN(C)C[C@@H]2c2ccccc2)[C@H](C)C3)CC1` [Compound 10], the IC50 was 158 nM. With `C[C@@H]1Cc2cnc(N[C@H]3CC[C@H](O)CC3)nc2CN1C(=O)[C@H]1CCN(C)C[C@@H]1c1ccccc1` [Compound 12] the IC50 was 93.3 nM. Compound `C[C@@H]1Cc2cnc(N[C@H]3CC[C@H](C)CC3)nc2CN1C(=O)[C@H]1CCN(C)C[C@@H]1c1ccccc1` [Compound 13] has an IC50 of about 33.9 nM. With `C[C@H](Nc1ncc2c(n1)CN(C(=O)[C@H]1CCN(C)C[C@@H]1c1ccccc1)[C@H](C)C2)c1ccccn1` [Compound 20] the IC50 was about 14.1 nM. `C[C@@H]1Cc2cnc(N[C@H](C)c3ccccc3)nc2CN1C(=O)[C@H]1CCN(C)C[C@@H]1c1ccccc1` [Compound 22] gave an IC50 of about 14.1 nM. In the case of `C[C@@H]1Cc2cnc(NC3Cc4ccccc4C3)nc2CN1C(=O)[C@H]1CCN(C)C[C@@H]1c1ccccc1` [Compound 29], the IC50 was 12.6 nM. For `CO[C@H]1CC[C@H](Nc2ncc3c(n2)CN(C(=O)[C@H]2CCN(C)C[C@@H]2c2ccccc2)[C@H](C)C3)CC1` [Compound 37], the IC50 was about 33.9 nM. Work on `C[C@@H]1Cc2cnc(NCc3ccccc3)nc2CN1C(=O)[C@H]1CCN(C)C[C@@H]1c1ccccc1` [Compound 43] yielded an IC50 of 107 nM. `C[C@@H]1Cc2cnc(NC3CCS(=O)(=O)CC3)nc2CN1C(=O)[C@H]1CCN(C)C[C@@H]1c1ccccc1` [Compound 44] showed an IC50 of 3090 nM. `C[C@@H]1Cc2cnc(NC3CCN(CC(F)(F)F)CC3)nc2CN1C(=O)[C@H]1CCN(C)C[C@@H]1c1ccccc1` [Compound 45] was tested, and the IC50 was 437 nM. Work on `C[C@@H]1Cc2cnc(NC3CCOCC3)nc2CN1C(=O)[C@H]1CCN(C)C[C@@H]1c1ccccc1` [Compound 47] yielded an IC50 of about 70.8 nM. Compound `C[C@@H]1Cc2cnc(NCc3ccsc3)nc2CN1C(=O)[C@H]1CCN(C)C[C@@H]1c1ccccc1` [Compound 48] has an IC50 of 132 nM. In the case of `C[C@@H]1Cc2cnc(NCC3CCS(=O)(=O)C3)nc2CN1C(=O)[C@H]1CCN(C)C[C@@H]1c1ccccc1` (stereo partly drawn) [Compound 49], the IC50 was over 10000 nM. `Cc1ccc(CNc2ncc3c(n2)CN(C(=O)[C@H]2CCN(C)C[C@@H]2c2ccccc2)[C@H](C)C3)o1` [Compound 50] was tested, and the IC50 was 72.4 nM. `C[C@@H]1Cc2cnc(NCc3cc[nH]n3)nc2CN1C(=O)[C@H]1CCN(C)C[C@@H]1c1ccccc1` [Compound 51] gave an IC50 of 1320 nM. `Cc1ncc(CNc2ncc3c(n2)CN(C(=O)[C@H]2CCN(C)C[C@@H]2c2ccccc2)[C@H](C)C3)[nH]1` [Compound 52] showed an IC50 of 2450 nM. Compound `C[C@@H]1Cc2cnc(NC[C@H]3CCOC3)nc2CN1C(=O)[C@H]1CCN(C)C[C@@H]1c1ccccc1` [Compound 53] has an IC50 of 575 nM. `C[C@@H]1Cc2cnc(NCc3cc(C(F)F)n(C)n3)nc2CN1C(=O)[C@H]1CCN(C)C[C@@H]1c1ccccc1` [Compound 56] showed an IC50 of 5130 nM. `C[C@@H]1Cc2cnc(NCc3cnn(C)c3)nc2CN1C(=O)[C@H]1CCN(C)C[C@@H]1c1ccccc1` [Compound 57] showed an IC50 of 2950 nM. `CCn1ccc(CNc2ncc3c(n2)CN(C(=O)[C@H]2CCN(C)C[C@@H]2c2ccccc2)[C@H](C)C3)n1` [Compound 58] was tested, and the IC50 was 22.9 nM. In the case of `C[C@@H]1Cc2cnc(N[C@H]3CCC[C@H](O)C3)nc2CN1C(=O)[C@H]1CCN(C)C[C@@H]1c1ccccc1` [Compound 59], the IC50 was 141 nM. For `C[C@@H]1Cc2cnc(NCc3ccn(C)c3)nc2CN1C(=O)[C@H]1CCN(C)C[C@@H]1c1ccccc1` [Compound 60], the IC50 was 214 nM. `Cc1cn(C)nc1CNc1ncc2c(n1)CN(C(=O)[C@H]1CCN(C)C[C@@H]1c1ccccc1)[C@H](C)C2` [Compound 61] was tested, and the IC50 was 912 nM. `C[C@@H]1Cc2cnc(NC[C@@H]3CCOC3)nc2CN1C(=O)[C@H]1CCN(C)C[C@@H]1c1ccccc1` [Compound 62] was tested, and the IC50 was 617 nM. `Cc1cc(CNc2ncc3c(n2)CN(C(=O)[C@H]2CCN(C)C[C@@H]2c2ccccc2)[C@H](C)C3)nn1C` [Compound 65] gave an IC50 of 6610 nM. In the case of `CC(C)n1ccc(CNc2ncc3c(n2)CN(C(=O)[C@H]2CCN(C)C[C@@H]2c2ccccc2)[C@H](C)C3)n1` [Compound 66], the IC50 was about 28.2 nM. `C[C@@H]1Cc2cnc(NC[C@@H]3CCCO3)nc2CN1C(=O)[C@H]1CCN(C)C[C@@H]1c1ccccc1` [Compound 67] gave an IC50 of 1320 nM. `C[C@@H]1Cc2cnc(NC3CCC(OC(F)F)CC3)nc2CN1C(=O)[C@H]1CCN(C)C[C@@H]1c1ccccc1` (stereo partly drawn) [Compound 69] showed an IC50 of 58.9 nM. `[2H]C([2H])(Nc1ncc2c(n1)CN(C(=O)[C@H]1CCN(C)C[C@@H]1c1ccccc1)[C@H](C)C2)c1ccccc1` [Compound 70] was tested, and the IC50 was 148 nM. `C[C@@H]1Cc2cnc(N[C@@H](CO)c3ccccc3)nc2CN1C(=O)[C@H]1CCN(C)C[C@@H]1c1ccccc1` [Compound 71] gave an IC50 of 120 nM. With `C[C@@H]1Cc2cnc(N[C@H](CO)c3ccccc3)nc2CN1C(=O)[C@H]1CCN(C)C[C@@H]1c1ccccc1` [Compound 72] the IC50 was 200 nM. For `C[C@@H]1Cc2cnc(Nc3cnn(CC(C)(C)O)c3)nc2CN1C(=O)[C@H]1CCN(C)C[C@@H]1c1ccccc1` [Compound 74], the IC50 was 178 nM. In the case of `C[C@@H]1Cc2cnc(Nc3ccnc(C(F)F)c3)nc2CN1C(=O)[C@H]1CCN(C)C[C@@H]1c1ccccc1` [Compound 75], the IC50 was 57.5 nM. With `C[C@@H]1Cc2cnc(Nc3cnn4c3CCCC4)nc2CN1C(=O)[C@H]1CCN(C)C[C@@H]1c1ccccc1` [Compound 77] the IC50 was 316 nM. In the case of `Cc1cc(Nc2ncc3c(n2)CN(C(=O)[C@H]2CCN(C)C[C@@H]2c2ccccc2)[C@H](C)C3)ccn1` [Compound 78], the IC50 was about 57.5 nM. Work on `C[C@@H]1Cc2cnc(Nc3ccnn3C)nc2CN1C(=O)[C@H]1CCN(C)C[C@@H]1c1ccccc1` [Compound 79] yielded an IC50 of 2290 nM. `C[C@@H]1Cc2cnc(Nc3cnn(C)c3)nc2CN1C(=O)[C@H]1CCN(C)C[C@@H]1c1ccccc1` [Compound 82] showed an IC50 of about 46.8 nM.
